ChEMBL document CHEMBL5104107, “Toward the Design of Ligands Selective for the C-Terminal Domain of TEADs” (J Med Chem, 2022)

Experiments:
[1] = target: Transcriptional enhancer factor TEF-4 (Homo sapiens) (UniProt Q15562); assay: Thermal stabilization of C-terminal human TEAD2 (217 to 447 residues) assessed as change in melting temperature by thermal shift assay
[2] = target: Transcriptional enhancer factor TEF-4 (Homo sapiens) (UniProt Q15562); assay: Binding affinity to recombinant TEAD2 (unknown origin) assessed as increase in thermal stability by thermal shift assay
[3] = target: Transcriptional enhancer factor TEF-1 (Homo sapiens) (UniProt P28347); assay: Binding affinity to recombinant TEAD1 (unknown origin) assessed as increase in thermal stability by thermal shift assay
Chain of Transcriptional enhancer factor TEF-1 (Homo sapiens) (P28347 whole entry): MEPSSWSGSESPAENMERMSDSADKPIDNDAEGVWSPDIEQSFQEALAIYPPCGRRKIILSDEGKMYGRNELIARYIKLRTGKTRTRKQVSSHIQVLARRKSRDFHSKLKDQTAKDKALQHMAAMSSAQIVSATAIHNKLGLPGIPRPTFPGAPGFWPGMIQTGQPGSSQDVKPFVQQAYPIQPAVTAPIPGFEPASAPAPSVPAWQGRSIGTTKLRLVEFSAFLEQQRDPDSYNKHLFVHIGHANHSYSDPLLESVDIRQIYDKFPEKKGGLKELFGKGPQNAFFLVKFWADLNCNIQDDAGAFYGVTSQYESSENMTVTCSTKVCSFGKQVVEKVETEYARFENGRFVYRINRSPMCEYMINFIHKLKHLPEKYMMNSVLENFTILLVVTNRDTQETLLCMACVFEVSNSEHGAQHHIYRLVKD

Chain of Transcriptional enhancer factor TEF-4 (Homo sapiens) (Q15562 whole entry, the tested form may be a part): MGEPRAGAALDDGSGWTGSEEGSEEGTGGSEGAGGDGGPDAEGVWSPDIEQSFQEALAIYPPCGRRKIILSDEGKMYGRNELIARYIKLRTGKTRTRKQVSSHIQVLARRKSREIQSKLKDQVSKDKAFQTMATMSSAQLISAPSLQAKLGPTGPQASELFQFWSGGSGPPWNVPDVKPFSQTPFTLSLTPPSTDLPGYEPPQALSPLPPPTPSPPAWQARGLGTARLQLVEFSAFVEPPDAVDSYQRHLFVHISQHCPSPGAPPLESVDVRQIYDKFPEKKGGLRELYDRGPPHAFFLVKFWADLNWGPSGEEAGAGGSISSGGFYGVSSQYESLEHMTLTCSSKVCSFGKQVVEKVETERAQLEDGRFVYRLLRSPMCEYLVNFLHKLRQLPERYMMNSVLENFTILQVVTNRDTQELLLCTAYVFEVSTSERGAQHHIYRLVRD

ΔTm [1]	deltaT [2]	deltaT [3]	Structure (SMILES)
0.95 °C	–	–	Nc1cccc(-c2cc[nH]n2)c1
–	4.2 °C	8.3 °C	CNS(=O)(=O)c1ccc(Nc2ccc(C(F)(F)F)cc2)c(-c2cn(C)cn2)c1
